Consider 13 compounds from patent publication US9340572B2, “Taccalonolide microtubule stabilizers” (THE BOARD OF REGENTS OF THE UNIVERSITY OF TEXAS SYSTEM, priority 2011, dated 2016).

Like-named read-outs stand apart in the source and are kept apart here.

The test system of data set [1] is HeLa cells. Kind of data set: Inhibition of cellular proliferation, SRB assay in HeLa cells. It counts as cell-based. Particulars: for IC50: HeLa cells, SRB assay; for fold increase in potency on epoxidation at C22-C23: epoxide compared with parent taccalonolide. How it is done:
The determination of IC50 values was performed on taccalonolide material after NMR analysis and subsequent lyophilization. Ethanol or DMSO was used as the vehicle for all cellular studies.
The antiproliferative potencies of the taccalonolides were evaluated in HeLa cells using the SRB assay. Several new taccalonolides with low nanomoloar potency were identified, Table 1.
On the technique in general: Sulforhodamine B stains cellular protein and so reports cell mass.

The subject of data set [2] is cell lines that overexpress MRP7. Particulars: MRP7 overexpressing cell lines; cited from earlier work.
The conditions of data set [3]: cited from earlier work.
In data set [4] the test system is cell lines that overexpress Pgp. The conditions noted are these: Pgp overexpressing cell lines; cited from earlier work.
Data set [5] deals with doxorubicin- and paclitaxel-resistant Pgp-expressing tumor, Mam17/ADR. The conditions noted are these: cited from earlier work.
Data set [6] has as its system isogenic HeLa-derived cell line that expresses the βIII isotype of tubulin. Particulars: cited from earlier work.
Data set [7] deals with human mammary epithelial cells. Nature of the data set: Cytotoxicity to normal cells. It counts as cell-based. Particulars: concentrations 5 to 100-fold their IC50 values in HeLa.
For a further data set, the system named is WTβIII versus HeLa cells. Kind of data set: Relative resistance, βIII-tubulin expressing cell line pair. Format: cell-based. How it is done:
(§1) FIG. 7—Effect of the taccalonolides in drug resistant and sensitive cells. IC50 values for inhibition of cellular proliferation for taccalonolides AF and AJ were determined in drug sensitive and drug resistant cell lines. The HeLa cell pair evaluated the effect of βIII tubulin expression on cell sensitivity and the ability of compounds to overcome drug resistance mediated by βIII tubulin expression. The SK-OV-3 cell line pair was used to evaluate the effects of the expression of P-glycoprotein (Pgp) on cell sensitivity and the ability of compounds to overcome Pgp-mediated drug resistence. The effects of the taccalonolides on the drug senstive prostate cancer cell line PC-3 are also presented. IC50 values were calculated from an average of 3-4 independent experiments, each performed in triplicate.
(§2) The HeLa cervical cancer cell line, the SK-OV-3 ovarian cancer cell line and the PC-3 prostate cancer cell line were obtained from American Type Tissue Culture Collection (Manassas, Va.) and grown in Basal Media Eagle (BME) or RPMI 1640 medium (Invitrogen; Carlsbad, Calif.) supplemented with 10% fetal bovine serum (Hyclone; Logan, Utah) and 50 μg/ml gentamicin sulfate (Invitrogen). […]
(§3) The antiproliferative and cytotoxic effects of the taccalonolides were evaluated using the SRB assay (Skehan et al., 1990, Boyd and Paull, 1995) as previously described (Tinley et al., 2003). […]

Data set [8] has as its system SK-OV-3/MDR-1-6/6 versus SK-OV-3 cells. Nature of the data set: Relative resistance, P-glycoprotein expressing cell line pair. It counts as cell-based. Particulars: P-glycoprotein expressing SK-OV-3 pair. As to the method:
as §1, §2, §3

Data set [9] concerns HeLa cells. Kind of data set: Interphase microtubule bundling by indirect immunofluorescence. It counts as cell-based. The conditions noted are these: 18 h; 200 nM AF, 200 nM AI, 70 nM AJ. As to the method: FIGS. 2A-D—Effect of the taccalonolides on interphase cells. HeLa cells were treated for 18 h with vehicle (FIG. 2A), 200 nM taccalonolide AF (FIG. 2B), 200 nM taccalonolide AI (FIG. 2C), or 70 nM taccalonolide AJ (FIG. 2D). Interphase microtubule structures were visualized by indirect immunofluorescence using a β-tubulin antibody.
(§4) Cellular microtubules in interphase and mitotic HeLa cells were visualized using indirect immunofluorescence techniques as previously described (Tinley et al., 2003). […] Representative images of interphase and mitotic cells were acquired using a Nikon Eclipse 80i fluorescence microscope and compiled using NIS Elements AR 3.0 software.

Data set [10] relates to HeLa cells. Nature of the data set: Mitotic spindle structures by indirect immunofluorescence. Particulars: 18 h; 125 nM AF, 200 nM AI, 35 nM AJ. It counts as cell-based.
Description: FIGS. 4A-D—Effect of the taccalonolides on mitotic spindles. […] The microtubule structures in mitotic cells were visualized by indirect immunofluorescence using a β-tubulin antibody.
as §4
The effects of the taccalonolides on mitotic spindle structures were evaluated to test whether they caused mitotic spindle defects leading to cell cycle arrest. β-tubulin and DNA were visualized in HeLa cells by indirect immunofluorescence and DAPI staining, respectively. […] These mitotic cells contained multiple abnormal mitotic spindles, which is another common effect of microtubule stabilizing agents (FIGS. 4A-D).

In data set [11] the test system is purified porcine brain tubulin. Nature of the data set: Tubulin polymerization followed turbidimetrically. Format: biochemical. The conditions noted are these: 10 μM; 2 mg/ml tubulin, 10% glycerol, 1 mM GTP, 37° C., OD340. As to the method:
FIG. 5—Effect of the taccalonolides on purified porcine brain tubulin. […] Tubulin polymerization was monitored by turbidity measurement at OD340.
The ability of these new potent taccalonolides to interact directly with tubulin was assessed by incubating purified porcine brain tubulin at a concentration of 2 mg/ml in the presence of 10% glycerol and 1 mM GTP, which allows for a baseline level of tubulin polymerization that can be followed turbidimetrically (FIG. 5).

The test system of data set [12] is MDA-MB-231 human breast tumors. Kind of data set: Antitumor activity against MDA-MB-231 tumors in nude mice. It counts as in vivo. How it is done: FIG. 6—Antitumor activity of taccalonolide AF. […] Tumor size was measured using calipers and volume calculated with the formula: Tumor volume (mm^3)=width (mm)×length (mm)×height (mm) and graphed as median tumor size for days 0-8.
The ability of taccalonolide AF to inhibit the growth of the aggressive human breast tumor MDA-MB-231 in a murine host was determined Taccalonolide AF was administered at a dose of 2.5 mg/kg on days 1 and 3.

Setting [13] is: parent taccalonolide, read-out: IC50 (nM), Taccalonolide.

For orientation: IC50 means the concentration that gives 50% inhibition. For the compound `CC(=O)O[C@H]1C(=O)[C@H]2C[C@@H]3O[C@@H]3[C@H](OC(C)=O)[C@]2(C)C2[C@@H]1[C@@H]1[C@@H](O)[C@@H]3[C@H]([C@H](C)C=C4OC(=O)[C@@](C)(O)[C@@]43C)[C@@]1(C)[C@@H](OC(C)=O)[C@H]2OC(C)=O` (stereo partly shown) [TB-AC-16], the IC50 in the data set with HeLa cells [1] (setting [13]) amounted to 40000 nM.
As for `CC(=O)O[C@H]1[C@@H]2[C@H]([C@H](C)C=C3OC(=O)[C@@](C)(O)[C@@]32C)[C@]2(C)[C@@H]1C1=C(O)C(=O)[C@H]3C[C@@H]4O[C@@H]4[C@H](OC(C)=O)[C@]3(C)[C@H]1[C@H](OC(C)=O)[C@@H]2OC(C)=O` [Taccalonolide H2, reference compound], the “fold more potent than taccalonolide A” value in the data set on HeLa cells [1] (HeLa IC50) was determined as 7.4 fold.
On to `CC(=O)O[C@@H]1[C@H]2[C@H]3[C@H]([C@H](OC(C)=O)[C@H](OC(C)=O)[C@]2(C)[C@@H]2[C@@H]1[C@]1(C)C(=C[C@H]2C)OC(=O)[C@@]1(C)O)[C@]1(C)[C@H](C[C@@H]2O[C@@H]2[C@@H]1OC(C)=O)C(=O)[C@@H]3O` [Taccalonolide A], for which the efficacy in vitro entry in [2] and in data set [4] was “effective” in each case. For the same compound, the “in vivo antitumor activity” value in data set [3] is reported as “have in vivo antitumor activity”. Also, the activity in vivo result in [5] is “highly active”.
On to `CC(=O)O[C@@H]1[C@H](O)[C@@H]2C([C@H](OC(C)=O)[C@H](OC(C)=O)[C@]3(C)[C@@H]4[C@@H]([C@H](O)[C@@H]23)[C@]2(C)C(=C[C@H]4C)OC(=O)[C@@]2(C)O)[C@]2(C)[C@@H]1C[C@@H]1O[C@@H]1[C@@H]2OC(C)=O` (stereo partly shown) [TA-NaBH4-12], for which the IC50 in the data set on HeLa cells [1] (setting [13]) stood at 7500 nM.
`C/C(=C\c1csc(C)n1)[C@@H]1C[C@@H]2O[C@]2(C)CCC[C@H](C)[C@H](O)[C@@H](C)C(=O)C(C)(C)[C@@H](O)CC(=O)O1` [epothilone B]: the “sensitivity of βIII-tubulin-overexpressing cell line compared with parental HeLa cells” value (shortened to “sensitivity … compared with parental HeLa cells”) in data set [6] is recorded as “less sensitive”.
As for `CC(=O)O[C@H]1C[C@H]2[C@H]([C@@H]3[C@@H](O)[C@@H]4[C@H]([C@H](C)C=C5OC(=O)[C@@](C)(O)[C@@]54C)[C@]31C)[C@@H](O)C(=O)[C@H]1C[C@@H]3O[C@@H]3[C@H](OC(C)=O)[C@@]12C` [Taccalonolide N], the efficacy in vitro entry in data set [2] and in data set [4] was “effective” throughout. The “in vivo antitumor activity” value in data set [3] is on record as “have in vivo antitumor activity”.
As to `CC[C@]1(O)C[C@@H]2CN(CCc3c([nH]c4ccccc34)[C@@](C(=O)OC)(c3cc4c(cc3OC)N(C)[C@H]3[C@@](O)(C(=O)OC)[C@H](OC(C)=O)[C@]5(CC)C=CCN6CC[C@]43[C@@H]65)C2)C1` [vinblastine], in [6], the “sensitivity … compared with parental HeLa cells” value is “less sensitive”.
As to `CC(=O)O[C@@H]1[C@H]2[C@H]3C([C@H](OC(C)=O)[C@H](OC(C)=O)[C@]2(C)[C@@H]2[C@@H]1[C@]1(C)C(=C[C@@]2(C)OO)OC(=O)[C@@]1(C)O)[C@]1(C)[C@H](C[C@@H]2O[C@@H]2[C@@H]1OC(C)=O)C(=O)[C@@H]3O` (stereo partly shown) [Taccalonolide AC], the IC50 in the data set with HeLa cells [1] (Homo sapiens, parent taccalonolide, read-out: IC50 (nM), Taccalonolide) is above 50000 nM; with HeLa cells [1] (Homo sapiens, read-out: IC50 value), above 50000 nM.
For the compound `CC(=O)O[C@H]1[C@H]2[C@H]([C@@H]3[C@@H](O)[C@@H]4[C@H]([C@H](C)[C@@H]5O[C@@]56OC(=O)[C@@](C)(O)[C@]46C)[C@@]3(C)[C@H]1OC(C)=O)[C@@H](O)C(=O)[C@H]1C[C@@H]3O[C@@H]3[C@H](OC(C)=O)[C@]21C` [Taccalonolide AJ], the “cytotoxicity of normal cells” value in [7] is “No cytotoxicity”. Moreover, the “relative resistance (IC50 resistant line / IC50 parental line)” value (in the data set with WTβIII versus HeLa cells; in data set [8]) was “much lower than paclitaxel” each time. Besides, the “fold increase in potency on epoxidation at C22-C23” value in the data set on HeLa cells [1] (HeLa IC50) is listed as 743 fold. The “bundling of interphase microtubules” value in the data set with HeLa cells [9] is on record as “formation of thick bundled microtubule tufts”. Besides, in the data set on HeLa cells [10], the “effect on mitotic spindles” value is recorded as “mitotic arrest of cells with multiple abnormal mitotic spindles”. The “rate and extent of tubulin polymerization” value in data set [11] is given as “dramatically increased”.
With `CC(=O)O[C@@H]1[C@H]2[C@H]3[C@H]([C@H](OC(C)=O)[C@H](OC(C)=O)[C@]2(C)[C@H]2[C@H](C)[C@H]4O[C@]45OC(=O)[C@@](C)(O)[C@]5(C)[C@@H]12)[C@]1(C)[C@H](C[C@@H]2O[C@@H]2[C@@H]1OC(C)=O)C(=O)[C@@H]3O` [Taccalonolide AF], the “cytotoxicity of normal cells” value in data set [7] is reported as “No cytotoxicity”. The “relative resistance (IC50 resistant line / IC50 parental line)” value (in the data set on WTβIII versus HeLa cells; in [8]) was “much lower than paclitaxel” each time. Also, the “fold increase in potency on epoxidation at C22-C23” value in the data set with HeLa cells [1] (HeLa IC50) was 234 fold. Also, in data set [12] (2.5 mg/kg days 1 and 3 vs 10 mg/kg paclitaxel days 1, 3 and 5, first week of treatment), the “antitumor activity compared to paclitaxel positive control” value is reported as “greater antitumor activity than the positive control”. For the same compound, the “antitumor activity compared to vehicle treated controls” value in [12] (2.5 mg/kg on days 1 and 3, preliminary) was “sufficient to observe antitumor activity”. For the same compound, the “bundling of interphase microtubules” value in the data set on HeLa cells [9] is reported as “formation of thick bundled microtubule tufts”. Also, the “effect on mitotic spindles” value in the data set with HeLa cells [10] is “mitotic arrest of cells with multiple abnormal mitotic spindles”. In data set [11], the “rate and extent of tubulin polymerization” value was “dramatically increased”.
Regarding `CC(=O)O[C@H]1[C@H]2[C@H]([C@@H]3[C@@H](O)[C@@H]4[C@H]([C@H](C)C=C5OC(=O)[C@@](C)(O)[C@@]54C)[C@@]3(C)[C@H]1OC(C)=O)[C@@H](O)C(=O)[C@H]1C[C@@H]3O[C@@H]3[C@H](OC(C)=O)[C@]21C` [Taccalonolide B], the efficacy in vitro entry in data set [2] and in [4] was “effective” in each case.
In the case of `CC(=O)O[C@@]12CO[C@@H]1C[C@H](O)[C@@]1(C)C(=O)[C@H](O)C3=C(C)[C@@H](OC(=O)[C@H](O)[C@@H](NC(=O)OC(C)(C)C)c4ccccc4)C[C@@](O)([C@@H](OC(=O)c4ccccc4)[C@H]21)C3(C)C` [docetaxel], in [6], the “sensitivity … compared with parental HeLa cells” value is on record as “less sensitive”.
For `CC(=O)O[C@H]1C2[C@@H]([C@@H](O)[C@@H](O)[C@H]3C[C@@H]4O[C@@H]4[C@H](OC(C)=O)[C@]23C)[C@@H]2[C@@H](O)[C@@H]3[C@H]([C@H](C)C=C4OC(=O)[C@@](C)(O)[C@@]43C)[C@@]2(C)[C@H]1OC(C)=O` (stereo partly shown) [TA-NaBH4-10], the IC50 in the data set on HeLa cells [1] (setting [13]) stood at 20000 nM.
